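Growth conditions: 96-well plates. Treatment: test compound, 48 hours, 5 concentrations. Analysis: linear interpolation between bracketing concentrations; unreached endpoints set to highest concentration. At the TGI there is no net growth.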
Key:
Assay in all cases: inhibition of tumour cell growth, NCI panel, 48 h
A549 NSCLC = test system: A549 NSCLC
DU-145 prostate = test system: DU-145 prostate
HCT-116 colon = test system: HCT-116 colon
HS 578T breast = test system: HS 578T breast
KM12 colon = test system: KM12 colon
OVCAR-5 ovarian = test system: OVCAR-5 ovarian
SK-MEL-2 melanoma = test system: SK-MEL-2 melanoma
SNB-75 CNS = test system: SNB-75 CNS
SW-620 colon = test system: SW-620 colon
UACC-62 melanoma = test system: UACC-62 melanoma

SMILES | TGI (A549 NSCLC) [µM] | TGI (DU-145 prostate) [µM] | TGI (HCT-116 colon) [µM] | TGI (HS 578T breast) [µM] | TGI (KM12 colon) [µM] | TGI (OVCAR-5 ovarian) [µM] | TGI (SK-MEL-2 melanoma) [µM] | TGI (SNB-75 CNS) [µM] | TGI (SW-620 colon) [µM] | TGI (UACC-62 melanoma) [µM]
Cc1ccc(N2C(=O)C(=O)N(/N=C3\C(=O)Nc4ccccc43)C2=S)cc1 | > 100 | > 100 | > 100 | > 100 | > 100 | > 100 | > 100 | > 100 | > 100 | > 100
Cc1nc(Nc2nc3ccccc3[nH]2)[nH]c(=O)c1CCO | > 100 | > 100 | > 100 | > 100 | > 100 | > 100 | > 100 | > 100 | > 100 | > 100
NCCCCCNOCCCN | > 100 | > 100 | > 100 | > 100 | > 100 | > 100 | > 100 | > 100 | > 100 | > 100
O=C1c2c(ccc3c2CCCC3)CC1Cc1ccc2c(c1)CCCC2 (stereo not given) | > 100 | > 100 | > 100 | > 100 | > 100 | > 100 | > 100 | > 100 | > 100 | > 100
C=CC[C@H]1[C@H](O[Si](C)(C)C(C)(C)C)C=CC(=O)[C@@H]1CC(=O)OCC | 23.9 | 32.8 | 23.5 | 43.4 | 27.2 | 27.1 | 28.1 | 30.1 | 33 | 24.1
C=CCC1C2CCC(O[Si](C(C)C)(C(C)C)C(C)C)(C(C(=O)OC)C2)C1O (stereo not given) | > 100 | > 100 | 58.2 | > 100 | > 100 | > 100 | > 100 | > 100 | > 100 | > 100
CCOC(=O)NC(=S)NC(C)c1ccccc1 (stereo not given) | > 100 | > 100 | > 100 | > 100 | > 100 | > 100 | > 100 | > 100 | > 100 | > 100

From PubChem BioAssay (NCI)
